Earlier results as cited in US20020025341A1, “Controlled release formulation of divalproex sodium” (priority 1998, published 2002).
Read-outs that look alike come from different tables or passages of the source.

How the values were obtained:
[1] = patients consuming valproate

Compound | patients affected by GI irritation [1] | free fraction (plasma protein binding) (plasma proteins; at 40 μg/ml) | free fraction (plasma protein binding) (plasma proteins; at 130 μg/ml) | half life (in adults) | half life (in children)
CCCC(CCC)C(=O)O [valproate] | up to one third of patients | approximately 10% | 18.5% | – | –
CCCC(CCC)C(=O)O [valproic acid, 2-Propylpentanoic acid] | – | – | – | between six and seventeen hours | between four and fourteen hours
